Laboratory results as given in patent publication US9981959B2, “Thiazolyl and oxazolyl urea, thiourea, guanidine and cyanoguanidine compounds as TrkA kinase inhibitors” (Array BioPharma Inc., priority 2012, dated 2018).

Legend:
Experiment in all cases: KinaseProfiler off-target kinase profiling
Assay type in all cases: biochemical
Details in all cases: 10 μM, ATP near Km
AKT3 = target: T1, AKT3 (Homo sapiens, UniProt Q9Y243)
T1 construct: purchased Millipore (KinaseProfiler service)
Outline: (§1)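 Duplicate reactions containing 10 μM test compound used an ATP level near each kinase's Km. Remaining activity is reported relative to control (POC), averaged.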

ALK = target: T2, ALK (Homo sapiens, UniProt Q9UM73)
T2 construct: purchased Millipore (KinaseProfiler service)
Outline: as §1

ALK4 = target: T3, ALK4 (Homo sapiens, UniProt P36896)
T3 construct: purchased Millipore (KinaseProfiler service)
Outline: as §1

CAMK2d = target: T4, CAMK2d (Homo sapiens, UniProt Q13557)
T4 construct: purchased Millipore (KinaseProfiler service)
Outline: as §1

CDK6/cyclinD3 = target: T5, CDK6/cyclinD3 (Homo sapiens, UniProt Q00534)
T5 construct: purchased Millipore, Inc. (KinaseProfiler service)
Outline: as §1

CDK9/cyclinT1 = target: T6, CDK9/cyclinT1 (Homo sapiens, UniProt P50750)
T6 construct: purchased Millipore, Inc. (KinaseProfiler service)
Outline: as §1

CHK1 = target: T7, CHK1 (Homo sapiens, UniProt O14757)
T7 construct: purchased Millipore, Inc. (KinaseProfiler service)
Outline: as §1

CK1delta = target: T8, CK1delta (Homo sapiens, UniProt P48730)
T8 construct: purchased Millipore, Inc. (KinaseProfiler service)
Outline: as §1

DAPK1 = target: T9, DAPK1 (Homo sapiens, UniProt P53355)
T9 construct: purchased Millipore, Inc. (KinaseProfiler service)
Outline: as §1

DAPK3 = target: T10, DAPK3 (Homo sapiens, UniProt O43293)
T10 construct: purchased Millipore, Inc. (KinaseProfiler service)
Outline: as §1

DMPK = target: T11, DMPK (Homo sapiens, UniProt Q09013)
T11 construct: purchased Millipore, Inc. (KinaseProfiler service)
Outline: as §1

DYRK2 = target: T12, DYRK2 (Homo sapiens, UniProt Q92630)
T12 construct: purchased Millipore, Inc. (KinaseProfiler service)
Outline: as §1

EphA1 = target: T13, EphA1 (Homo sapiens, UniProt P21709)
T13 construct: purchased Millipore, Inc. (KinaseProfiler service)
Outline: as §1

FGFR1 = target: T14, FGFR1 (Homo sapiens, UniProt P11362)
T14 construct: purchased Millipore, Inc. (KinaseProfiler service)
Outline: as §1

Fgr = target: T15, Fgr (Homo sapiens, UniProt P09769)
T15 construct: purchased Millipore, Inc. (KinaseProfiler service)
Outline: as §1

GRK6 = target: T16, GRK6 (Homo sapiens, UniProt P43250)
T16 construct: purchased Millipore, Inc. (KinaseProfiler service)
Outline: as §1

GRK7 = target: T17, GRK7 (Homo sapiens, UniProt Q8WTQ7)
T17 construct: purchased Millipore, Inc. (KinaseProfiler service)
Outline: as §1

GSK3alpha = target: T18, GSK3alpha (Homo sapiens, UniProt P49840)
T18 construct: purchased Millipore, Inc. (KinaseProfiler service)
Outline: as §1

IRR = target: T19, IRR (Homo sapiens, UniProt P14616)
T19 construct: purchased Millipore, Inc. (KinaseProfiler service)
Outline: as §1

JAK3 = target: T20, JAK3 (Homo sapiens, UniProt P52333)
T20 construct: purchased Millipore, Inc. (KinaseProfiler service)
Outline: as §1

MAPKAP-K3 = target: T21, MAPKAP-K3 (Homo sapiens, UniProt Q16644)
T21 construct: purchased Millipore, Inc. (KinaseProfiler service)
Outline: as §1

MARK2 = target: T22, MARK2 (Homo sapiens, UniProt Q7KZI7)
T22 construct: purchased Millipore, Inc. (KinaseProfiler service)
Outline: as §1

MKK6 = target: T23, MKK6 (Homo sapiens, UniProt P52564)
T23 construct: purchased Millipore, Inc. (KinaseProfiler service)
Outline: as §1

MKNK2 = target: T24, MKNK2 (Homo sapiens, UniProt Q9HBH9)
T24 construct: purchased Millipore, Inc. (KinaseProfiler service)
Outline: as §1

MSK1 = target: T25, MSK1 (Homo sapiens, UniProt O75582)
T25 construct: purchased Millipore, Inc. (KinaseProfiler service)
Outline: as §1

MST1 = target: T26, MST1 (Homo sapiens, UniProt Q13043)
T26 construct: purchased Millipore, Inc. (KinaseProfiler service)
Outline: as §1

MST2 = target: T27, MST2 (Homo sapiens, UniProt Q13188)
T27 construct: purchased Millipore, Inc. (KinaseProfiler service)
Outline: as §1

NEK11 = target: T28, NEK11 (Homo sapiens, UniProt Q8NG66)
T28 construct: purchased Millipore, Inc. (KinaseProfiler service)
Outline: as §1

NEK3 = target: T29, NEK3 (Homo sapiens, UniProt P51956)
T29 construct: purchased Millipore, Inc. (KinaseProfiler service)
Outline: as §1

PDK1 = target: T30, PDK1 (Homo sapiens, UniProt O15530)
T30 construct: purchased Millipore, Inc. (KinaseProfiler service)
Outline: as §1

PKCdelta = target: T31, PKCdelta (Homo sapiens, UniProt Q05655)
T31 construct: purchased Millipore, Inc. (KinaseProfiler service)
Outline: as §1

PKCzeta = target: T32, PKCzeta (Homo sapiens, UniProt Q05513)
T32 construct: purchased Millipore, Inc. (KinaseProfiler service)
Outline: as §1

Pim-1 = target: T33, Pim-1 (Homo sapiens, UniProt P11309)
T33 construct: purchased Millipore, Inc. (KinaseProfiler service)
Outline: as §1

Ros = target: T34, Ros (Homo sapiens, UniProt P08922)
T34 construct: purchased Millipore, Inc. (KinaseProfiler service)
Outline: as §1

Rsk4 = target: T35, Rsk4 (Homo sapiens, UniProt Q9UK32)
T35 construct: purchased Millipore, Inc. (KinaseProfiler service)
Outline: as §1

SGK2 = target: T36, SGK2 (Homo sapiens, UniProt Q9HBY8)
T36 construct: purchased Millipore, Inc. (KinaseProfiler service)
Outline: as §1

SRPK2 = target: T37, SRPK2 (Homo sapiens, UniProt P78362)
T37 construct: purchased Millipore, Inc. (KinaseProfiler service)
Outline: as §1

STK33 = target: T38, STK33 (Homo sapiens, UniProt Q9BYT3)
T38 construct: purchased Millipore, Inc. (KinaseProfiler service)
Outline: as §1

TEC Activated = target: T39, TEC Activated (Homo sapiens, UniProt P42680)
T39 construct: purchased Millipore, Inc. (KinaseProfiler service)
Outline: as §1

Tie2 = target: T40, Tie2 (Homo sapiens, UniProt Q02763)
T40 construct: purchased Millipore, Inc. (KinaseProfiler service)
Outline: as §1

mTOR/FKBP12 = target: T41, mTOR/FKBP12 (Homo sapiens, UniProt P42345)
T41 construct: purchased Millipore, Inc. (KinaseProfiler service)
Outline: as §1

T36 sequence (Q9HBY8 whole entry): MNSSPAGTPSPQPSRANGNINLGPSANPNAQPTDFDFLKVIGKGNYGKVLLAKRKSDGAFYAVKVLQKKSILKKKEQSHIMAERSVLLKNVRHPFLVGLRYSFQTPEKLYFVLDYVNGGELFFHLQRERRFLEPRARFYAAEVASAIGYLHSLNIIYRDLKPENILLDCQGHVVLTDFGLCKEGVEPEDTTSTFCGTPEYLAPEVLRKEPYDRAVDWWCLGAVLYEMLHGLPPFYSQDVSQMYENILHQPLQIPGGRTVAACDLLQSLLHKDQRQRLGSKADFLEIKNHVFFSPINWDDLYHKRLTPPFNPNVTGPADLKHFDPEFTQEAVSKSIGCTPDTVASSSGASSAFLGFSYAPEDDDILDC
T23 sequence (P52564 whole entry): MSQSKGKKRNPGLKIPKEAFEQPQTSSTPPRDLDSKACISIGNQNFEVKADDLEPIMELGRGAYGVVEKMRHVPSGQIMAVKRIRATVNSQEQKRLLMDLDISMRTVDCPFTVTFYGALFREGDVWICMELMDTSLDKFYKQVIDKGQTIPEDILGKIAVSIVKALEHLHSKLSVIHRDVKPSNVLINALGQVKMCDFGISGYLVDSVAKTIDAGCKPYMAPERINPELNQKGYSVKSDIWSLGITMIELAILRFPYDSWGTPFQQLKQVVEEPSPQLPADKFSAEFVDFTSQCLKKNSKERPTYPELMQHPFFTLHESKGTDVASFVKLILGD
T31 sequence (Q05655 whole entry): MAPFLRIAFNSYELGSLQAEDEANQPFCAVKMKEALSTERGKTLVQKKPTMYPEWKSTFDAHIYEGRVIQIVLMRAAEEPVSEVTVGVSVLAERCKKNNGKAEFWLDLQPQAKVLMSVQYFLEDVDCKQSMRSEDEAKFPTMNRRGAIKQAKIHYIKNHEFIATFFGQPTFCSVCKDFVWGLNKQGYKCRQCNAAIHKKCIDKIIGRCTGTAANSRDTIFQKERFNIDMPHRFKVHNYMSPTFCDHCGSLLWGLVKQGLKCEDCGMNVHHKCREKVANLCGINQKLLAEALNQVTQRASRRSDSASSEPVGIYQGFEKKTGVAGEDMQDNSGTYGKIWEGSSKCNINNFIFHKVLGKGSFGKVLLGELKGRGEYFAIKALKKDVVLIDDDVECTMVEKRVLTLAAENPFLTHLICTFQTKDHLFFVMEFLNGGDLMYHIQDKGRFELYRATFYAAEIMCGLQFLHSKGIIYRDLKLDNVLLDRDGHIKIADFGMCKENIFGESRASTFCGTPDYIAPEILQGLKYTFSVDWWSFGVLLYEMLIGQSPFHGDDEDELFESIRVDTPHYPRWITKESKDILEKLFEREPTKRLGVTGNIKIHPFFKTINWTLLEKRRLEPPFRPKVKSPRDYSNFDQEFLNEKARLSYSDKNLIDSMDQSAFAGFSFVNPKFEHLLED
T2 sequence (Q9UM73 19-1620): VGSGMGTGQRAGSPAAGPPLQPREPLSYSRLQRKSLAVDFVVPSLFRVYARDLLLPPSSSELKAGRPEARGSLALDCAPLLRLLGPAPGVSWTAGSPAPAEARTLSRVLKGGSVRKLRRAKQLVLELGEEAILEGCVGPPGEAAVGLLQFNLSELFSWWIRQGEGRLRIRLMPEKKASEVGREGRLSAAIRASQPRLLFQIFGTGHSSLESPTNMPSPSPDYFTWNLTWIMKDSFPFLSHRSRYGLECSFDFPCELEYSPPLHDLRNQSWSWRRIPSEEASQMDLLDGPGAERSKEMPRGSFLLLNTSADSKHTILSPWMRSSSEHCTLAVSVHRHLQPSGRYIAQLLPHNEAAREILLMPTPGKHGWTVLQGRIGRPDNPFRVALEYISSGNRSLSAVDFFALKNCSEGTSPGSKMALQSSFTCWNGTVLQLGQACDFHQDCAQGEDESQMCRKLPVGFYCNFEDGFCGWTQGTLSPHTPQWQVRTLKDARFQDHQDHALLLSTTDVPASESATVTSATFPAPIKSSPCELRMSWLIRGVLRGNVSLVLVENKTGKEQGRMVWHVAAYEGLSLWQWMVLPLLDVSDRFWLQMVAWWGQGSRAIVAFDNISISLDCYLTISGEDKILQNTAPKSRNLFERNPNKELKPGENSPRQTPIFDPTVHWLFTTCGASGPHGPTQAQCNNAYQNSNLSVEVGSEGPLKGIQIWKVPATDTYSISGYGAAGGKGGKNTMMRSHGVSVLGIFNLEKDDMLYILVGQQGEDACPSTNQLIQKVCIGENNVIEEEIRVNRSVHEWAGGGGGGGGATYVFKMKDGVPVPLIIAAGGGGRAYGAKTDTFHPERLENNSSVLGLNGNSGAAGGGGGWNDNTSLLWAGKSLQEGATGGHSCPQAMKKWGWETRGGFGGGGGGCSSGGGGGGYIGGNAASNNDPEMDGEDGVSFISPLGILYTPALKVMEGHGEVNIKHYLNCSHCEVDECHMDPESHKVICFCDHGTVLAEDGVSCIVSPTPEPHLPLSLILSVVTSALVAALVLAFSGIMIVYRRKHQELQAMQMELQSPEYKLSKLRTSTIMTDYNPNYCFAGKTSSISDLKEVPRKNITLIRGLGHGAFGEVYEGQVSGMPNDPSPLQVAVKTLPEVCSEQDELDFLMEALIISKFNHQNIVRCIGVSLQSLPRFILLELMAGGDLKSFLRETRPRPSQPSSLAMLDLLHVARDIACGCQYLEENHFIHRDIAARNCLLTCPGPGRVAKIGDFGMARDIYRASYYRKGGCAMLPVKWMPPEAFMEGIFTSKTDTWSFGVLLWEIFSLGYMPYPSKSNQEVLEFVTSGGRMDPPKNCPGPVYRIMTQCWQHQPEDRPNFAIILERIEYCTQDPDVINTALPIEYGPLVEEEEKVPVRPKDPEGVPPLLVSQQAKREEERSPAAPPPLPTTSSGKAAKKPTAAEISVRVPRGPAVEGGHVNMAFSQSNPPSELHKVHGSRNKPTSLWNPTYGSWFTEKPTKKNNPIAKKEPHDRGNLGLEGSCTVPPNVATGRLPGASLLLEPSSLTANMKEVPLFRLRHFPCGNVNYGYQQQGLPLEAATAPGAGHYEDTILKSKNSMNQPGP
T29 sequence (P51956 whole entry): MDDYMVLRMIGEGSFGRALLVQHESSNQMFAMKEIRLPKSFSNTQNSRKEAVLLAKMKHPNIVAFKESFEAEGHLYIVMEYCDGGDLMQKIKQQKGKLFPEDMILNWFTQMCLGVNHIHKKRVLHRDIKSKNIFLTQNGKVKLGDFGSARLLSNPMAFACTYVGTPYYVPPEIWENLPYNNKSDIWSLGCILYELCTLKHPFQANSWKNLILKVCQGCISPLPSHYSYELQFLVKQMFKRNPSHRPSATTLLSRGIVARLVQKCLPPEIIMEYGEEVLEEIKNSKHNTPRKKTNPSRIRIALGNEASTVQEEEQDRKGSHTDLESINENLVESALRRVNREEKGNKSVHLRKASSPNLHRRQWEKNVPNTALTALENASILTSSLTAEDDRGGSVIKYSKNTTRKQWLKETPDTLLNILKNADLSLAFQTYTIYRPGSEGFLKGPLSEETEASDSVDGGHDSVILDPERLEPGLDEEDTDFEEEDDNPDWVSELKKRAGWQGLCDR
T38 sequence (Q9BYT3 whole entry): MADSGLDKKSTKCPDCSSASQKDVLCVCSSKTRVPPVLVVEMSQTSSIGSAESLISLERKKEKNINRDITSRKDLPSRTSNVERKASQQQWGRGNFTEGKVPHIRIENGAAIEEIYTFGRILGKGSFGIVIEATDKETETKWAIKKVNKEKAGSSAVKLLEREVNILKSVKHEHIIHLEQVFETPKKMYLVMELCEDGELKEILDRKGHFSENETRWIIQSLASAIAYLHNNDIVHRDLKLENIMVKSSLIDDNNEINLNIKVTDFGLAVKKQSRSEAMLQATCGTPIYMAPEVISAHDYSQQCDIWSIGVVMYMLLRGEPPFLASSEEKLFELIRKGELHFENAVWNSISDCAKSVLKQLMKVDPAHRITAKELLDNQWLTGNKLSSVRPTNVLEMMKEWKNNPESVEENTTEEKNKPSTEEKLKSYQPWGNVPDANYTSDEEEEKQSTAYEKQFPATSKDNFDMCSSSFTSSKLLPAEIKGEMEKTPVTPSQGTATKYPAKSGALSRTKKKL
T27 sequence (Q13188 whole entry): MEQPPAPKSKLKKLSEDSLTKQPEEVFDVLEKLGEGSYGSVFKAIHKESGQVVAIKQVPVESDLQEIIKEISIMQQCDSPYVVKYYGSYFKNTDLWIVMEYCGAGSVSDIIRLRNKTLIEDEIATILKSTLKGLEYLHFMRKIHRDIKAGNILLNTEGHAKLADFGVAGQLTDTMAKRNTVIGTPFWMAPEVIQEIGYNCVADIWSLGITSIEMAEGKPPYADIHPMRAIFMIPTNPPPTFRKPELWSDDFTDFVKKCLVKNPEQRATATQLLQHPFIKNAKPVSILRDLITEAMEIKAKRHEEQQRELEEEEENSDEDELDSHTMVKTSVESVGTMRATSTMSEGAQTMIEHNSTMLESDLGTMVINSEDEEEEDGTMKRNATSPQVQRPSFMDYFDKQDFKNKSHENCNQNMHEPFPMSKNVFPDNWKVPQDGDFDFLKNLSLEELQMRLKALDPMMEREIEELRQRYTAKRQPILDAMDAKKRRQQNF
T8 sequence (P48730 whole entry): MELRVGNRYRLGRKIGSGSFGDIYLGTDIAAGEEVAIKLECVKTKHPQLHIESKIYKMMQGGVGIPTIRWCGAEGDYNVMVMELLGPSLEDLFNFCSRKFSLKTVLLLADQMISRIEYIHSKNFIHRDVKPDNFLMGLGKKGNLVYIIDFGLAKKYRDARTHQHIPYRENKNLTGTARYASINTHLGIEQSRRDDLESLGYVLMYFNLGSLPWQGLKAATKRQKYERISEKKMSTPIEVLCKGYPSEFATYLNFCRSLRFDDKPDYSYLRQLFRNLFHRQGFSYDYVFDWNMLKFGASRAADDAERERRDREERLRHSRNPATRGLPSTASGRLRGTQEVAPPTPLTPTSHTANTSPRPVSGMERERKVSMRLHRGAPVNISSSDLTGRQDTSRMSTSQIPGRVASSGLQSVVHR

In the case of `Cc1c(-c2cnn(C)c2)nn(-c2ccccc2)c1NC(=O)Nc1sc(C(F)(F)F)nc1-c1ccccc1` [Example 2, 1-(1′,4-dimethyl-1-phenyl-1H,1′H-[3,4′-bipyrazol]-5-yl)-3-(4-phenyl-2-(trifluoromethyl)thiazol-5-yl)urea], the “Avg POC” value (AKT3) was 116 POC, the “Avg POC” value (ALK) was 108 POC and the “Avg POC” value (ALK4) was 107 POC. For the same compound, the “Avg POC” value (CAMK2d) was 118 POC, the “Avg POC” value (CDK6/cyclinD3) was 119.5 POC and the “Avg POC” value (CDK9/cyclinT1) was 108 POC. For the same compound, the “Avg POC” value (CHK1) was 126.5 POC, the “Avg POC” value (CK1delta) was 117.5 POC and the “Avg POC” value (DAPK1) was 126.5 POC. For the same compound, the “Avg POC” value (DAPK3) was 120 POC, the “Avg POC” value (DMPK) was 107.5 POC and the “Avg POC” value (DYRK2) was 88 POC. The “Avg POC” value (EphA1) was 81.5 POC, the “Avg POC” value (FGFR1) was 80.5 POC and the “Avg POC” value (Fgr) was 128 POC. The “Avg POC” value (GRK6) was 98.5 POC, the “Avg POC” value (GRK7) was 112 POC and the “Avg POC” value (GSK3alpha) was 147.5 POC. The “Avg POC” value (IRR) was 109 POC, the “Avg POC” value (JAK3) was 113 POC and the “Avg POC” value (MAPKAP-K3) was 116 POC. For the same compound, the “Avg POC” value (MARK2) was 100.5 POC, the “Avg POC” value (MKK6) was 134 POC and the “Avg POC” value (MKNK2) was 95 POC. The “Avg POC” value (MSK1) was 151 POC, the “Avg POC” value (MST1) was 100.5 POC and the “Avg POC” value (MST2) was 109 POC. For the same compound, the “Avg POC” value (NEK11) was 73.5 POC, the “Avg POC” value (NEK3) was 108.5 POC and the “Avg POC” value (PDK1) was 115 POC. For the same compound, the “Avg POC” value (PKCdelta) was 97 POC, the “Avg POC” value (PKCzeta) was 108 POC and the “Avg POC” value (Pim-1) was 109.5 POC. The “Avg POC” value (Ros) was 96.5 POC, the “Avg POC” value (Rsk4) was 98 POC and the “Avg POC” value (SGK2) was 144.5 POC. The “Avg POC” value (SRPK2) was 113.5 POC, the “Avg POC” value (STK33) was 120.5 POC and the “Avg POC” value (TEC Activated) was 131 POC. For the same compound, the “Avg POC” value (Tie2) was 131.5 POC and the “Avg POC” value (mTOR/FKBP12) was 103 POC.
